In US9949947B2, “Delphinidin for combating melanoma cells” (Sapiotec GmbH, priority 2012, dated 2018):

Legend:
[1] = system: human melanoma cell line A-375; experiment: Induction of apoptosis, sub-G1 peak method (Example 6); assay type: cell-based; conditions: A-375, 24 hours; 10-3000 μg/ml delphinidin-SBE-β-CD or 15-120 μM delphinidin Cl; low and higher cell confluence (FIGS. 1, 2a, 2b)
[2] = Stability in aqueous 0.9% NaCl solution at 37° C., delphinidin content by HPLC (Example 5); assay type: physicochemical; conditions: starting concentration 1.584 mg/ml (complex) or 0.0216 mg/ml (delphinidin)
Protocol: To determine the delphinidin chloride content in the delphinidin-containing solutions, a reversed-phase HPLC method was used similar to the one already described above. The following reagents were used in this case: […] The solutions were prepared at room temperature and subsequently stored in the dark at 37° C. in closed vials. […] The table below gives the content determined as a percentage of the starting concentration stated above. The determination of the delphinidin content in the samples was calculated with the aid of the Agilent ChemStation software using the calibration with the external standard described.

[3] = system: human melanoma cell line A-375; experiment: Cell viability test, WST-1 assay (Example 7); assay type: cell-based; conditions: A-375, 24 hours; 10-3000 μg/ml delphinidin-SBE-β-CD or 15-120 μM delphinidin Cl; low and higher cell confluence (FIGS. 3a, 3b)
A-375 cells [4] = experiment: Microscopic analysis of cell morphology after 24 hours of treatment; conditions: A-375, after 24 hours of treatment, high concentrations (FIG. 4)
[5] = system: human dermal microvascular endothelial cells; experiment: Cytotoxicity, cell vitality by ATP luminescence assay, endothelial cells (Example 12); assay type: cell-based; conditions: 0.1-100 μM (0.1 μM; 3.2 μM; 100 μM), Day 1-Day 4, FIG. 18
Description: The human dermal microvascular endothelial cells were obtained by the standard method known to those skilled in the art of Hewett and Murray (1993) [Hewett P. W. and Murray J. C. (1993) Immunomagnetic purification of human microvessel endothelial cells using Dynabeads coated monoclonal antibodies to PECAM-1. Eur J Cell Biol 62: 451-454; Hewett P. W. & Murray J. C. (1993) Human microvessel endothelial cells: Isolation, culture and characterization. In Vitro Cell Biol: 823-830].

[6] = Solubility of delphinidin chloride in aqueous cyclodextrin solutions (Example 1); conditions: pure water, cyclodextrin concentration 0; excess delphinidin chloride, stirred at 30° C. for 20 h in the dark, filtered 0.22 μm
human fibroblasts = experiment: Cytotoxicity, cell vitality by ATP luminescence assay, fibroblasts (Example 12); conditions: 0.1-100 μM (0.1 μM; 3.2 μM; 100 μM), FIG. 19
Protocol: The cells used were primary, even isolated fibroblasts and microvascular endothelial cells from human donor skin.
To isolate the fibroblasts, the tissue cell structure was dissolved by means of a one-hour incubation with trypsin-EDTA solution. To stop the cell detachment reaction, stop medium was added to the skin. The piece of skin was then swirled twice in PBS resulting in a suspension of fibroblasts. The fibroblasts obtained were centrifuged at 4° C. for 5 min at 100 revolutions per minute and were used after quantification.
In the experiments according to Example 12, the effect of the substances investigated on the vitality of human fibroblasts and endothelial cells was investigated using the ATP luminescence assay, which is known to those skilled in the art and is briefly summarized below for the sake of completeness.
By the inhibition of endogenous ATPases, the ATP content liberated by lysis can thus be used as a measure for the number of vital cells. For the quantification, the liberated ATP is coupled to a reaction catalyzed by the enzyme luciferase, in which the ATP-dependent oxidation of the substrate luciferin to oxyluciferin, carbon dioxide, AMP and inorganic phosphate takes place in the presence of Mg^2+, with release of light. […] This is measured in RLU (relative light units), an independent unit which reflects the amount of ATP in the sample. […]

A-375 cells [7] = experiment: Cell viability test in combination with TRAIL (Example 10); assay type: cell-based, human; conditions: A-375, 24 hours; complex partner as control
A-375 cells [8] = experiment: Real-time cell analysis (RTCA) in combination with TRAIL, xCELLigence system (Example 11); assay type: cell-based, human; conditions: A-375, high cell confluence; TRAIL 0.02 μg/ml, SBE-β-CD 30 or 1000 μg/ml (FIGS. 16 and 17)
cell line A-375 = experiment: Induction of apoptosis in combination with TRAIL, sub-G1 peak method (Example 9); assay type: cell-based, human; conditions: A-375, 24 hours; complex partner as control
Protocol: The same cell line and method was used in the experiments as in the preceding section II. […] The experiments were carried out in parallel both at low (low cell confluence) and higher cell density (higher cell confluence), of which the results processed graphically are shown in FIGS. 11a (low cell confluence) and 11b (higher cell confluence).

| Compound | Induction of apoptosis (sub-G1 peak) [1] | Delphinidin content as a percentage of the starting concentration ([2]; 0 h) [%] | Delphinidin content as a percentage of the starting concentration ([2]; 1 h, 37° C. in the dark) [%] | Delphinidin content as a percentage of the starting concentration ([2]; 2 h, 37° C. in the dark) [%] | Delphinidin content as a percentage of the starting concentration ([2]; 3 h, 37° C. in the dark) [%] | Delphinidin content as a percentage of the starting concentration ([2]; 4 h, 37° C. in the dark) [%] | Effect on cell viability (loss of vital cells) [3] | Morphology of the cells under microscopic analysis (A-375 cells [4]) | Cytotoxic effects on cell vitality [5] | Delphinidin chloride, solubility achievable [6] [µg/mL] | Cytotoxic effects on cell vitality (human fibroblasts) | Cell vitality (A-375 cells [7]) | Intensification of TRAIL sensitivity (A-375 cells [8]) | Induction of apoptosis (sub-G1 peak) (cell line A-375) |
| --- | --- | --- | --- | --- | --- | --- | --- | --- | --- | --- | --- | --- | --- | --- |
| Oc1cc(O)c2cc(O)c(-c3cc(O)c(O)c(O)c3)[o+]c2c1.[Cl-] [delphinidin Cl, delphinidin chloride] | significant dose-dependent induction of apoptosis | 100 | 8.3 | 6.5 | 5.6 | 5.1 | loss of vital cells with increasing dose | globular and/or detached | no significant cytotoxic effects | 70 | no significant cytotoxic effects |  |  |  |
| sulfobutyl ether β-cyclodextrin [SBE-β-CD] | no effect |  |  |  |  |  | no effect |  |  |  |  | at control level | No intensification of TRAIL sensitivity | at control level |
